Laboratory results reported in patent publication US9636418B2 (priority 2013, dated 2017).
Several values for one entry are separate records, joined by “and”; a condition that tells them apart may be missing. Equal values may be shown once. Read-outs that look alike come from different tables or passages of the source.

What was measured:
Assay in all cases: cell-based
hNav1.4 = hNav1.4 (Homo sapiens, UniProt P35499); conditions: for IC50: PatchXpress, read-out: PX hNav1.4 Tonic IC50
hNav1.5 = hNav1.5 (Homo sapiens, UniProt Q14524)
hNav1.7 = hNav1.7 (Homo sapiens, UniProt Q15858); assay type: cell-based; conditions: PatchXpress, read-out: PX hNav1.7 Tonic IC50
[1] = * = at high concentrations compound would wash off slowly or not at all

hNav1.5, sequence (Q14524 whole entry): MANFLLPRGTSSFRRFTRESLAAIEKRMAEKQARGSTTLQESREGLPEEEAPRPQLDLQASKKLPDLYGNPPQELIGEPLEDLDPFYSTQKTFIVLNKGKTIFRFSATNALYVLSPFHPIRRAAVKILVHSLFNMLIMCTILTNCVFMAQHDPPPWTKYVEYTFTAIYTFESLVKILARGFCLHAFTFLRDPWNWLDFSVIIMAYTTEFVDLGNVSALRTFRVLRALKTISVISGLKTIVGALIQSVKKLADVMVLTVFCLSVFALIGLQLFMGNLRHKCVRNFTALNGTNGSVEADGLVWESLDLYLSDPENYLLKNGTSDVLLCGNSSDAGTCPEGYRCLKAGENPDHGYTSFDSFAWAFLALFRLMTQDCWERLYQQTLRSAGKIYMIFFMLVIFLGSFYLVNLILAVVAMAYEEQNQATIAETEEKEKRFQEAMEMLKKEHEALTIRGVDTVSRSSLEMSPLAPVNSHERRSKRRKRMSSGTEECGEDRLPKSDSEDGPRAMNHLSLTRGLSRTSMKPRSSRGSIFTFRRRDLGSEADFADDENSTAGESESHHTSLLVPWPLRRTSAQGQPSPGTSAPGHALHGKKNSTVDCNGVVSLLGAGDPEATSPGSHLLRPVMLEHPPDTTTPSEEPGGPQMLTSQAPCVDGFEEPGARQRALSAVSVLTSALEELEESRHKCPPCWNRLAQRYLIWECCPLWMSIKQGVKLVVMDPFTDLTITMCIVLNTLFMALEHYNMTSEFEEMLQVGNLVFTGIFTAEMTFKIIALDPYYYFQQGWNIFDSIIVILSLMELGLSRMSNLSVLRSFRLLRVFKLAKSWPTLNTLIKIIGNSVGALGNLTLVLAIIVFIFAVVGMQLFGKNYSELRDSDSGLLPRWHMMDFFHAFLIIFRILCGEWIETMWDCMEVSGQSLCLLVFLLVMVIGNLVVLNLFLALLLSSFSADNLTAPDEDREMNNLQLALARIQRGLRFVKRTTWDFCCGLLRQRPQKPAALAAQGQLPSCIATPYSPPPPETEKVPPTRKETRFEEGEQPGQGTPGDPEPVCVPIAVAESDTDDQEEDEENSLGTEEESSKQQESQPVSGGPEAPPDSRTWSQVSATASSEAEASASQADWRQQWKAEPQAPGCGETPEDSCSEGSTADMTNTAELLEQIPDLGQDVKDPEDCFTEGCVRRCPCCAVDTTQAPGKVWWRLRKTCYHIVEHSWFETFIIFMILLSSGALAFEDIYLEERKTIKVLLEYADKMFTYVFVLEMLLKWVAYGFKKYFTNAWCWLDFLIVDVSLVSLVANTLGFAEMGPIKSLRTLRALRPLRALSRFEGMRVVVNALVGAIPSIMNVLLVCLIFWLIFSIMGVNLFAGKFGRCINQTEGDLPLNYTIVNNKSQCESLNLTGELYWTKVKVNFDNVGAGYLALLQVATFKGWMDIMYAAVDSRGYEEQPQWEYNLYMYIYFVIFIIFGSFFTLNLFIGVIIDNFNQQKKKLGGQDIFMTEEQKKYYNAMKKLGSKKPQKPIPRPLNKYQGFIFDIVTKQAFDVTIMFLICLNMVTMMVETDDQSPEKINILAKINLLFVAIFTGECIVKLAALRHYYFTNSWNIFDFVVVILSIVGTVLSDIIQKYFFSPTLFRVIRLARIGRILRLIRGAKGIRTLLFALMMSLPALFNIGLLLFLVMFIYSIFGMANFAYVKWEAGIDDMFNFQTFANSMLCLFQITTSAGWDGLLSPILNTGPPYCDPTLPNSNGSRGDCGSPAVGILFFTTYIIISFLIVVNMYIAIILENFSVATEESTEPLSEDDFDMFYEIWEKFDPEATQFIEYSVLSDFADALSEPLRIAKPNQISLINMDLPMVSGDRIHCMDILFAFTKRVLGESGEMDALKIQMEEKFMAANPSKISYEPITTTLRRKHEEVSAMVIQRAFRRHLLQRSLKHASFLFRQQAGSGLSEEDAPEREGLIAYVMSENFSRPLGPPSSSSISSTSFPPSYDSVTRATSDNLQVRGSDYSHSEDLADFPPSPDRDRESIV
hNav1.4, sequence (P35499 whole entry): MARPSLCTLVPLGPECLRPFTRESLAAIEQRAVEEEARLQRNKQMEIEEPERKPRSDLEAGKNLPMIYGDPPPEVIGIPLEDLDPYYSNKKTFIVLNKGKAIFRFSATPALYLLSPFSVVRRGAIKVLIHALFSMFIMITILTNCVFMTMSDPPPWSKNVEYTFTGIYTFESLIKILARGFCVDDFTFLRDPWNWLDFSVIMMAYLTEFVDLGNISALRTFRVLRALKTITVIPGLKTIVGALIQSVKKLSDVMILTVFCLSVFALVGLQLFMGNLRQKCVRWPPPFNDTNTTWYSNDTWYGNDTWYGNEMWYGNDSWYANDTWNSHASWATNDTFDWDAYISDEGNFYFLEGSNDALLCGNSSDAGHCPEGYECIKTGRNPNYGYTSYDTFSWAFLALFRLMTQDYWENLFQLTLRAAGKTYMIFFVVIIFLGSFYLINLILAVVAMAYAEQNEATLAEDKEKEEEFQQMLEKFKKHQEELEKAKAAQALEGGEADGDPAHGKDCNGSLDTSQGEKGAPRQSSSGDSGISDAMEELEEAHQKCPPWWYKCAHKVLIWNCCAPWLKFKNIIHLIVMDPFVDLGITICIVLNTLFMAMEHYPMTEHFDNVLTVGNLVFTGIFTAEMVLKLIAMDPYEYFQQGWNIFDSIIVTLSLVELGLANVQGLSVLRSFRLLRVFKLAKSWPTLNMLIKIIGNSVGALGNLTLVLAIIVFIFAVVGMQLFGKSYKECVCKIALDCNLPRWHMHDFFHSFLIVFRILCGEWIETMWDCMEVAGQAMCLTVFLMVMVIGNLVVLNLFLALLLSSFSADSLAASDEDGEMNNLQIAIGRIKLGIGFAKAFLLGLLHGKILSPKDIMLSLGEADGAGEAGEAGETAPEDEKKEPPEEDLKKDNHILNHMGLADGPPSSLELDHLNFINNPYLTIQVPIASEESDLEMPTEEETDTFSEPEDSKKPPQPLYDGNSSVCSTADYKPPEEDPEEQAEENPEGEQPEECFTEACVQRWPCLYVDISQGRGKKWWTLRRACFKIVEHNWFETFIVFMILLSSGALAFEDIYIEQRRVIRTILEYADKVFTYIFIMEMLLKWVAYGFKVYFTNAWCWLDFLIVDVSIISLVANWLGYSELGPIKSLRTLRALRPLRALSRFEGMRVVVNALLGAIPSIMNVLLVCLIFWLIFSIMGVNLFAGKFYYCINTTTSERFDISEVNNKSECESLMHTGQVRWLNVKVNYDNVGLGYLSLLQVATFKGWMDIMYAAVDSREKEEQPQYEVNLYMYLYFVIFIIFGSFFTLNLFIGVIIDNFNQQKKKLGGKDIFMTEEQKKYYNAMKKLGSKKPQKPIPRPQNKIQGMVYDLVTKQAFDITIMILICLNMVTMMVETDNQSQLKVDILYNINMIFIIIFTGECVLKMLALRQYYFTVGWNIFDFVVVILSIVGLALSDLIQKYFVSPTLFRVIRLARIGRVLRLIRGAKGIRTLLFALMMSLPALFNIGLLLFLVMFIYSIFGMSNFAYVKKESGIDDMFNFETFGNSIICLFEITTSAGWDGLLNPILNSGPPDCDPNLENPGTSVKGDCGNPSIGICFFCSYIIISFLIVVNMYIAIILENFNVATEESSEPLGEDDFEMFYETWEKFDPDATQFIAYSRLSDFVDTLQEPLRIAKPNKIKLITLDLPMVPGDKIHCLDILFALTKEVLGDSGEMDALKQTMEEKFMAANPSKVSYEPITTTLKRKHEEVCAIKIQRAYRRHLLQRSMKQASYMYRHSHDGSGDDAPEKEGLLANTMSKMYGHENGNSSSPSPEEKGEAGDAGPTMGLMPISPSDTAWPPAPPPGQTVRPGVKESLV

| SMILES | IC50 (hNav1.7; tonic block) | IC50 (hNav1.4; tonic block) [µM] | Nav1.4/Nav1.7 (hNav1.4; ratio of PX tonic IC50 values) | also measured |
| --- | --- | --- | --- | --- |
| CCCC[C@@H]1NC(=O)[C@H](Cc2c[nH]c3ccccc23)NC(=O)[C@H](CCCCN)NC(=O)[C@H](CCC(N)=O)NC(=O)[C@@H](NC(=O)[C@H](Cc2ccc(O)cc2)NC(=O)[C@@H](N)Cc2cn(CCOCCOCCOCCOCCOCCOCCOCCOCCOCCOCCOCCOCCOCCOCCOCCOCCOCCOCCOCCOCCOCCOCCOCCNC(=O)c3cc(CNC(=O)CSCc4ccccc4)cc(C(=O)NCCOCCOCCOCCOCCOCCOCCOCCOCCOCCOCCOCCOCCOCCOCCOCCOCCOCCOCCOCCOCCOCCOCCOCCn4cc(C[C@H](N)C(=O)N[C@@H](Cc5ccc(O)cc5)C(=O)N[C@H]5CSSC[C@@H]6NC(=O)[C@@H]7CSSC[C@@H](C(=O)N[C@@H](CCCNC(=N)N)C(=O)N[C@@H](CCCCN)C(=O)N[C@H](C(=O)N[C@H](C(N)=O)[C@@H](C)CC)[C@@H](C)CC)NC(=O)[C@H](Cc8c[nH]c9ccccc89)NC(=O)[C@H](CC(C)C)NC(=O)[C@H](CCCCN)NC(=O)[C@H](CSSC[C@H](NC(=O)[C@H]([C@@H](C)O)NC(=O)[C@H](Cc8c[nH]c9ccccc89)NC(=O)[C@H](CCCC)NC(=O)[C@H](Cc8c[nH]c9ccccc89)NC(=O)[C@H](CCCCN)NC(=O)[C@H](CCC(N)=O)NC5=O)C(=O)N[C@@H](CC(=O)O)C(=O)N[C@@H](CO)C(=O)N[C@@H](CCCCN)C(=O)N[C@@H](CCCNC(=N)N)C(=O)N[C@@H](C)C(=O)N7)NC(=O)[C@H](CCCNC(=N)N)NC(=O)[C@H](CC(C)C)NC(=O)CNC(=O)[C@H](CCC(=O)O)NC6=O)nn4)c3)nn2)CSSC[C@@H]2NC(=O)[C@@H]3CSSC[C@@H](C(=O)N[C@@H](CCCNC(=N)N)C(=O)N[C@@H](CCCCN)C(=O)N[C@H](C(=O)N[C@H](C(N)=O)[C@@H](C)CC)[C@@H](C)CC)NC(=O)[C@H](Cc4c[nH]c5ccccc45)NC(=O)[C@H](CC(C)C)NC(=O)[C@H](CCCCN)NC(=O)[C@H](CSSC[C@H](NC(=O)[C@H]([C@@H](C)O)NC(=O)[C@H](Cc4c[nH]c5ccccc45)NC1=O)C(=O)N[C@@H](CC(=O)O)C(=O)N[C@@H](CO)C(=O)N[C@@H](CCCCN)C(=O)N[C@@H](CCCNC(=N)N)C(=O)N[C@@H](C)C(=O)N3)NC(=O)[C@H](CCCNC(=N)N)NC(=O)[C@H](CC(C)C)NC(=O)CNC(=O)[C@H](CCC(=O)O)NC2=O [Homodimeric Conjugate No. 2, Bis-{Atz(PEG23*)-[Nle6]JzTx-V(1-29)}-5-((2-(benzylthio)acetamido)methyl)isophthalamide] |  |  |  | Nav1.4/Nav1.7 (hNav1.4; ratio of PX IC50 values): 5 and 3; IC50 (hNav1.5; PatchXpress, * = at high concentrations compound would wash off slowly or not at all, read-out: PX hNav1.5 Tonic IC50): 0.72 µM and 1.18 µM |
| CSCC[C@@H]1NC(=O)[C@H](Cc2c[nH]c3ccccc23)NC(=O)[C@H](CCCCN)NC(=O)[C@H](CCC(N)=O)NC(=O)[C@@H](NC(=O)[C@@H](N)Cc2ccc(O)cc2)CSSC[C@@H]2NC(=O)[C@@H]3CSSC[C@@H](C(=O)N[C@@H](CCCCN)C(=O)N[C@@H](Cc4ccc(O)cc4)C(=O)N[C@@H](CC(N)=O)C(=O)N[C@@H](CC(C)C)C(N)=O)NC(=O)[C@H](Cc4c[nH]c5ccccc45)NC(=O)[C@H](CC(C)C)NC(=O)[C@H](CCC(=O)O)NC(=O)[C@H](CSSC[C@H](NC(=O)[C@H]([C@@H](C)O)NC(=O)[C@H](Cc4c[nH]c5ccccc45)NC1=O)C(=O)N[C@@H](CC(=O)O)C(=O)N[C@@H](CO)C(=O)N[C@@H](CCC(=O)O)C(=O)N[C@@H](CCCNC(=N)N)C(=O)N[C@@H](CCCCN)C(=O)N3)NC(=O)[C@H](C(C)C)NC(=O)[C@H](Cc1ccc(O)cc1)NC(=O)CNC(=O)[C@H](CCC(=O)O)NC2=O [compound 48] |  |  |  | Nav1.4/Nav1.7 (hNav1.4): 3; Nav1.5/Nav1.7 (hNav1.5): 61 |
| C#CC[C@@H]1NC(=O)[C@@H]2CSSC[C@H](NC(=O)[C@H](Cc3ccc(O)cc3)NC(=O)[C@@H](N)CC#N)C(=O)N[C@@H](CCC(N)=O)C(=O)N[C@@H](CCCCN)C(=O)N[C@@H](Cc3c[nH]c4ccccc34)C(=O)N[C@@H](CCCC)C(=O)N[C@@H](Cc3c[nH]c4ccccc34)C(=O)N[C@@H]([C@@H](C)O)C(=O)N[C@H]3CSSC[C@H](NC(=O)[C@H](CCC(=O)O)NC(=O)[C@H](CC(C)C)NC(=O)CNC1=O)C(=O)N[C@@H](CCCCN)C(=O)N[C@@H](CC(C)C)C(=O)N[C@@H](Cc1c[nH]c4ccccc14)C(=O)N[C@H](C(=O)N[C@@H](CCCNC(=N)N)C(=O)N[C@@H](CCCCN)C(=O)N[C@@H](Cc1ccc(O)cc1)C(=O)N[C@H](C(N)=O)[C@@H](C)CC)CSSC[C@H](NC(=O)[C@H](C)NC(=O)[C@H](CCCNC(=N)N)NC(=O)[C@H](CCCCN)NC(=O)[C@H](CO)NC(=O)[C@H](CC(=O)O)NC3=O)C(=O)N2 [compound 397] | 0.0871 µM | 1.76 | 20 |  |
| CCCC[C@@H]1NC(=O)[C@H](Cc2c[nH]c3ccccc23)NC(=O)[C@H](CCCCN)NC(=O)[C@H](CCC(N)=O)NC(=O)[C@@H](NC(=O)[C@@H](N)Cc2ccc(O)cc2)CSSC[C@@H]2NC(=O)[C@@H]3CSSC[C@@H](C(=O)N[C@@H](CCCNC(=N)N)C(=O)N[C@@H](CCCCN)C(=O)N[C@@H](CCC(=O)O)C(=O)N[C@H](C(N)=O)[C@@H](C)CC)NC(=O)[C@H](Cc4c[nH]c5ccccc45)NC(=O)[C@H](CC(C)C)NC(=O)[C@H](CCCCN)NC(=O)[C@H](CSSC[C@H](NC(=O)[C@H]([C@@H](C)O)NC(=O)[C@H](Cc4c[nH]c5ccccc45)NC1=O)C(=O)N[C@@H](CC(=O)O)C(=O)N[C@@H](CO)C(=O)N[C@@H](CCCCN)C(=O)N[C@@H](CCCNC(=N)N)C(=O)N[C@@H](C)C(=O)N3)NC(=O)[C@H](CCCNC(=N)N)NC(=O)[C@H](CC(C)C)NC(=O)CNC(=O)[C@H](Cc1cn(CCCOCCOCCOCCOCCOCCOCCOCCOCCOCCOCCN)nn1)NC2=O [compound 406] |  |  |  | IC50 (hNav1.7; [1]): 0.00588 µM; IC50 (hNav1.4; [1]): 0.0659 µM; Nav1.4/Nav1.7 (hNav1.4; ratio of PX IC50 values): 11 |
| CCCC[C@@H]1NC(=O)[C@H](Cc2c[nH]c3ccccc23)NC(=O)[C@H](CCCCN)NC(=O)[C@H](CCC(N)=O)NC(=O)[C@@H](NC(=O)[C@@H](N)Cc2cn(CCCOCCOCCOCCOCCOCCOCCOCCOCCOCCOCCN)nn2)CSSC[C@@H]2NC(=O)[C@@H]3CSSC[C@@H](C(=O)N[C@@H](CCCNC(=N)N)C(=O)N[C@@H](CCCCN)C(=O)N[C@H](C(=O)N[C@H](C(N)=O)[C@@H](C)CC)[C@@H](C)CC)NC(=O)[C@H](Cc4c[nH]c5ccccc45)NC(=O)[C@H](CC(C)C)NC(=O)[C@H](CCCCN)NC(=O)[C@H](CSSC[C@H](NC(=O)[C@H]([C@@H](C)O)NC(=O)[C@H](Cc4c[nH]c5ccccc45)NC1=O)C(=O)N[C@@H](CC(=O)O)C(=O)N[C@@H](CO)C(=O)N[C@@H](CCCCN)C(=O)N[C@@H](CCCNC(=N)N)C(=O)N[C@@H](C)C(=O)N3)NC(=O)[C@H](CCC(=O)O)NC(=O)[C@H](CC(C)C)NC(=O)CNC(=O)[C@H](CCC(=O)O)NC2=O [compound 407] |  |  |  | IC50 (hNav1.7; [1]): 0.00648 µM; IC50 (hNav1.4; [1]): 0.549 µM |
| C#CC[C@H](N)C(=O)NCCOCCOCCOCCOCCC(=O)NCCCC[C@@H]1NC(=O)[C@H](CCCNC(=N)N)NC(=O)[C@H](CCCCN)NC(=O)[C@H](CO)NC(=O)[C@H](CC(=O)O)NC(=O)[C@@H]2CSSC[C@@H]3NC(=O)[C@H](CCCNC(=N)N)NC(=O)[C@H](CC(C)C)NC(=O)CNC(=O)[C@H](CCC(=O)O)NC(=O)[C@H](CSSC[C@H](NC(=O)[C@H](Cc4ccc(O)cc4)NC(=O)[C@@H](N)CCC)C(=O)N[C@@H](CCC(N)=O)C(=O)N[C@@H](CCCCN)C(=O)N[C@@H](Cc4c[nH]c5ccccc45)C(=O)N[C@@H](CCCC)C(=O)N[C@@H](Cc4c[nH]c5ccccc45)C(=O)N[C@@H]([C@@H](C)O)C(=O)N2)NC(=O)[C@H](CSSC[C@@H](C(=O)N[C@@H](CCCNC(=N)N)C(=O)N[C@@H](CCCCN)C(=O)N[C@H](C(=O)N[C@H](C(N)=O)[C@@H](C)CC)[C@@H](C)CC)NC(=O)[C@H](Cc2c[nH]c4ccccc24)NC(=O)[C@H](CC(C)C)NC(=O)[C@H](CCCCN)NC3=O)NC1=O [compound 432] | 0.00143 µM and 0.00156 µM | 0.0165 | 12 |  |
| C#CC[C@H](N)C(=O)NCCCC[C@@H]1NC(=O)[C@H](CCCNC(=N)N)NC(=O)[C@H](CCCCN)NC(=O)[C@H](CO)NC(=O)[C@H](CC(=O)O)NC(=O)[C@@H]2CSSC[C@@H]3NC(=O)[C@H](CCCNC(=N)N)NC(=O)[C@H](CC(C)C)NC(=O)CNC(=O)[C@H](CCC(=O)O)NC(=O)[C@H](CSSC[C@H](NC(=O)[C@H](Cc4ccc(O)cc4)NC(=O)[C@@H](N)CCC)C(=O)N[C@@H](CCC(N)=O)C(=O)N[C@@H](CCCCN)C(=O)N[C@@H](Cc4c[nH]c5ccccc45)C(=O)N[C@@H](CCCC)C(=O)N[C@@H](Cc4c[nH]c5ccccc45)C(=O)N[C@@H]([C@@H](C)O)C(=O)N2)NC(=O)[C@H](CSSC[C@@H](C(=O)N[C@@H](CCCNC(=N)N)C(=O)N[C@@H](CCCCN)C(=O)N[C@@H](CCC(=O)O)C(=O)N[C@H](C(N)=O)[C@@H](C)CC)NC(=O)[C@H](Cc2c[nH]c4ccccc24)NC(=O)[C@H](CC(C)C)NC(=O)[C@H](CCCCN)NC3=O)NC1=O [compound 435] | 0.00219 µM | 0.217 | 99 |  |
| C#CC[C@H](N)C(=O)NCCCC[C@@H]1NC(=O)[C@H](CCCNC(=N)N)NC(=O)[C@H](CCCCN)NC(=O)[C@H](CO)NC(=O)[C@H](CC(=O)O)NC(=O)[C@@H]2CSSC[C@@H]3NC(=O)[C@H](CCCNC(=N)N)NC(=O)[C@H](CC(C)C)NC(=O)CNC(=O)[C@H](CCC(=O)O)NC(=O)[C@H](CSSC[C@H](NC(=O)[C@H](Cc4ccc(O)cc4)NC(=O)[C@@H](N)CCC)C(=O)N[C@@H](CCC(N)=O)C(=O)N[C@@H](CCCCN)C(=O)N[C@@H](Cc4c[nH]c5ccccc45)C(=O)N[C@@H](CC(C)C)C(=O)N[C@@H](Cc4c[nH]c5ccccc45)C(=O)N[C@@H]([C@@H](C)O)C(=O)N2)NC(=O)[C@H](CSSC[C@@H](C(=O)N[C@@H](CCCNC(=N)N)C(=O)N[C@@H](CCCCN)C(=O)N[C@H](C(=O)N[C@H](C(N)=O)[C@@H](C)CC)[C@@H](C)CC)NC(=O)[C@H](Cc2c[nH]c4ccccc24)NC(=O)[C@H](CC(C)C)NC(=O)[C@H](CCCCN)NC3=O)NC1=O [compound 438] | 0.00238 µM and 0.00157 µM | 0.0161 | 7 |  |
